This note sets out measurements from ChEMBL document CHEMBL1201862, “PubChem BioAssay data set” (2004).

Some test systems named below: NCI-H460; HL-60; SK-MEL-5; COLO 205; U-251; SF-268; OVCAR-4; SW-620; SK-OV-3; HCT-15; OVCAR-3; DLD-1; HT-29; TK-10; A498; SR; HOP-92; NCI-H226.
Experiment in all cases: growth of human tumour cells (NCI), 48 h

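A five-concentration, 48-hour dose response in 96-well plates underlies each endpoint, interpolated linearly between surrounding concentrations. GI50 = concentration required for 50% inhibition of growth.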 Calls of active or inactive are those of the source. Cut-off read from the data, not from the text of the source: active = GI50 up to about 1.1 µM and inactive = higher.

For the molecule `Cc1nc2cc(Nc3ccccc3C(=O)O)ccc2s1`, the GI50 with NCI-H460, in the test on HL-60, in the test with SK-MEL-5, in the test with COLO 205, in the test on U-251 and in the test with SF-268 was > 100 µM (inactive) throughout. Also, the GI50 in the test on OVCAR-4 was > 100 µM (inactive); in the test on SW-620, > 100 µM (inactive); with SK-OV-3, > 100 µM (inactive); in the test with HCT-15, 63.1 µM; in the test with OVCAR-3, > 100 µM (inactive); in the test on DLD-1, > 100 µM (inactive). Also, the GI50 with HT-29, with TK-10, with A498, in the test with SR and in the test with HOP-92 was > 100 µM (inactive) throughout.
On to `CC(C)(C)C(=O)Nc1cccc2oc(-c3ccccc3)cc12`, for which the GI50 was > 100 µM (inactive) with NCI-H460; 66.2 µM (inactive) with HL-60; > 100 µM (inactive) with COLO 205; > 100 µM (inactive) in the test on U-251; > 100 µM (inactive) with OVCAR-4; > 100 µM (inactive) in the test on SW-620. Also, the GI50 was > 100 µM (inactive) in the test on SK-OV-3; above 100 µM in the test with HCT-15; > 100 µM (inactive) in the test with OVCAR-3; > 100 µM (inactive) with DLD-1; > 100 µM (inactive) in the test with HT-29; > 100 µM (inactive) with A498. For the same molecule, the GI50 with SR was 88.5 µM (inactive); with HOP-92, 56.2 µM (inactive).
Consider `O=C1Nc2ccc(Cl)c(I)c2C1=O`, for which the GI50 in the test on NCI-H226 was 0.608 µM (active); in the test on NCI-H460 it was 21.2 µM (inactive); in the test on HL-60, 16.1 µM (inactive); in the test on SK-MEL-5, 19.2 µM (inactive); with COLO 205, 18.7 µM (inactive); in the test with U-251, 17.2 µM (inactive). Further, the GI50 is 17.4 µM (inactive) in the test with SF-268; 18.1 µM (inactive) in the test on OVCAR-4; 19.5 µM (inactive) with SW-620; 17.9 µM (inactive) with SK-OV-3; 20.9 µM with HCT-15; 21.1 µM (inactive) with OVCAR-3. Also, the GI50 with DLD-1 is 16.9 µM (inactive); in the test on HT-29 it was 29.6 µM (inactive); in the test on TK-10, 38.5 µM (inactive); in the test on SR, 22 µM (inactive).
On to `CC1=CCCC(OC(N)=O)C1` (stereo not given), for which the GI50 in the test with NCI-H460, in the test on HL-60, in the test on SK-MEL-5, with COLO 205, in the test with U-251 and in the test on SF-268 was > 100 µM (inactive) each time. Moreover, the GI50 in the test on OVCAR-4 was > 100 µM (inactive); in the test on SW-620, > 100 µM (inactive); in the test on SK-OV-3, > 100 µM (inactive); in the test on HCT-15, above 100 µM; in the test with OVCAR-3, > 100 µM (inactive); in the test on DLD-1 it was > 100 µM (inactive). Also, the GI50 is > 100 µM (inactive) with HT-29, > 100 µM (inactive) with TK-10, 32.4 µM (inactive) in the test with A498 and 46.2 µM (inactive) with HOP-92.
In the case of `O=C(O)CNS(=O)(=O)c1ccc(NC(=O)c2ccccc2[N+](=O)[O-])cc1`, the GI50 in the test on NCI-H460, with HL-60, with SK-MEL-5, in the test on COLO 205, in the test with U-251 and in the test on SF-268 was > 100 µM (inactive) each time. Moreover, the GI50 in the test with OVCAR-4 was > 100 µM (inactive); in the test with SW-620, > 100 µM (inactive); with SK-OV-3, > 100 µM (inactive); in the test on HCT-15, above 100 µM; in the test on DLD-1 it was > 100 µM (inactive); in the test with HT-29 it was > 100 µM (inactive). In addition, the GI50 with TK-10, in the test with A498 and in the test on HOP-92 was > 100 µM (inactive) throughout.
For `O=S1(=O)c2cc(S(=O)(=O)n3ccnc3)ccc2NC2=NCCCN21`, the GI50 is 19.8 µM (inactive) with NCI-H226; 15.5 µM (inactive) in the test on HL-60; 20.2 µM (inactive) with SK-MEL-5; 18.6 µM (inactive) in the test with COLO 205; 21.3 µM (inactive) with U-251; 41.2 µM (inactive) in the test with SF-268. Moreover, the GI50 is 47.4 µM (inactive) in the test on OVCAR-4; 26.2 µM (inactive) in the test on SW-620; 20.3 µM (inactive) with SK-OV-3; 20.3 µM (inactive) with OVCAR-3; 28.1 µM (inactive) in the test on DLD-1; 20.3 µM (inactive) in the test on HT-29. Also, the GI50 was 61 µM (inactive) in the test with TK-10, 28 µM (inactive) in the test with A498, 20.7 µM (inactive) in the test on SR and > 100 µM (inactive) with HOP-92.
For the molecule `Oc1ccc(O)c(-n2cccn2)c1-n1cccn1`, the GI50 with NCI-H460 was > 100 µM (inactive); with HL-60 it was > 10 µM (inactive); in the test with SK-MEL-5 it was > 100 µM (inactive); in the test with COLO 205, 30.5 µM (inactive); with U-251 it was > 100 µM (inactive); with SF-268, > 100 µM (inactive). In addition, the GI50 is > 100 µM (inactive) with OVCAR-4; 44.6 µM (inactive) in the test on SW-620; > 100 µM (inactive) with SK-OV-3; above 100 µM with HCT-15; > 100 µM (inactive) with OVCAR-3; > 100 µM (inactive) with DLD-1. The GI50 in the test with HT-29, in the test with TK-10, in the test on A498 and in the test with HOP-92 was > 100 µM (inactive) each time.
Regarding `NC(=S)N/N=C1/CN(c2ccc(Cl)c(Cl)c2)CC(=O)C1c1nc2ccccc2s1` (stereo not given), the GI50 with NCI-H226 was 78.7 µM (inactive); in the test with NCI-H460, > 100 µM (inactive); in the test with HL-60 it was 68.9 µM (inactive); with SK-MEL-5, > 100 µM (inactive); in the test on COLO 205, > 100 µM (inactive); with U-251 it was 67.1 µM (inactive). The GI50 with SF-268 was 46.8 µM (inactive); with OVCAR-4, 92.7 µM (inactive); in the test on SW-620 it was > 100 µM (inactive); in the test on SK-OV-3 it was > 100 µM (inactive); in the test on HCT-15, above 100 µM; with OVCAR-3 it was 67 µM (inactive). For the same molecule, the GI50 in the test with DLD-1 was > 100 µM (inactive); with HT-29, 81.5 µM (inactive); with TK-10, > 100 µM (inactive); in the test with A498, > 100 µM (inactive); in the test on HOP-92 it was > 100 µM (inactive).
On to `CS(=O)(=O)c1ccc(-c2cc(-c3ccc(S(C)(=O)=O)cc3)[n+](-c3cc(-c4ccc(S(C)(=O)=O)cc4)c([O-])c(-c4ccc(S(C)(=O)=O)cc4)c3)c(-c3ccc(S(C)(=O)=O)cc3)c2)cc1`, for which the GI50 with NCI-H226, in the test on NCI-H460, with SK-MEL-5, in the test on COLO 205, in the test with U-251 and in the test with SF-268 was > 100 µM (inactive) in each case. Further, the GI50 with OVCAR-4 is > 100 µM (inactive); in the test with SW-620, > 100 µM (inactive); in the test on HCT-15 it was above 100 µM; in the test on OVCAR-3, > 100 µM (inactive); in the test with DLD-1, > 100 µM (inactive); in the test with HT-29 it was > 100 µM (inactive). Further, the GI50 in the test with TK-10 and with SR was > 100 µM (inactive) in each case.
Turning to `C#CCN(N=O)C(=O)ON1C(=O)CCC1=O`, the GI50 was > 100 µM (inactive) in the test with NCI-H460; > 100 µM (inactive) in the test with HL-60; > 100 µM (inactive) with SK-MEL-5; > 100 µM (inactive) in the test with COLO 205; 74.8 µM (inactive) in the test on U-251; > 100 µM (inactive) in the test with SF-268. The GI50 in the test with OVCAR-4 was > 100 µM (inactive); with SW-620, > 100 µM (inactive); in the test on SK-OV-3, > 100 µM (inactive); in the test with HCT-15 it was above 100 µM; with OVCAR-3 it was > 100 µM (inactive); in the test with DLD-1, > 100 µM (inactive). Also, the GI50 in the test on HT-29, in the test with TK-10, in the test on A498 and with HOP-92 was > 100 µM (inactive) throughout.
In the case of `CC1=C(C#N)C(=O)CC(c2ccc(Cl)cc2)N(C)N1` (stereo not given), the GI50 in the test with NCI-H226, with NCI-H460, in the test with HL-60, in the test with SK-MEL-5, with U-251 and in the test on SF-268 was > 100 µM (inactive) throughout. In addition, the GI50 is > 100 µM (inactive) with OVCAR-4; > 100 µM (inactive) with SW-620; > 100 µM (inactive) with SK-OV-3; above 100 µM with HCT-15; > 100 µM (inactive) in the test on DLD-1; > 100 µM (inactive) in the test on HT-29. The GI50 in the test on TK-10, in the test on A498, with SR and in the test on HOP-92 was > 100 µM (inactive) each time.
Take `O=C(O)CCC(NC(=O)c1ccc(Nc2nc3ccccc3nc2-c2cccs2)cc1)C(=O)O` (stereo not given): the GI50 with NCI-H226, in the test on NCI-H460, with HL-60, with SK-MEL-5, in the test on U-251 and with SF-268 was > 100 µM (inactive) throughout. The GI50 with OVCAR-4 was > 100 µM (inactive); in the test with SW-620, > 100 µM (inactive); in the test with SK-OV-3, > 100 µM (inactive); in the test with HCT-15, above 100 µM; in the test with OVCAR-3, > 100 µM (inactive); in the test with DLD-1, > 100 µM (inactive). The GI50 in the test on HT-29, with TK-10, in the test with A498, with SR and in the test with HOP-92 was > 100 µM (inactive) in each case.
